The text below walks through data of US7879865B2, “Treatment of cancer of the brain using histone deacetylase inhibitors” (Sloan-Kettering Institute for Cancer Research, priority 2001, dated 2011).

Data set [1] concerns histone deacetylase (HDAC). The data set can be described thus: Acetylated histone levels in mouse tissues after IP injection (Western blot of isolated histones). The data set is classed as in vivo. Particulars: mice, three injections at 1 hour intervals, SAHA 100 mg/kg, pyroxamide 200 mg/kg. On the procedure: FIG. […]
Each mouse was administered three injections at the indicated dose at 1 hour intervals. After the final IP injection tissues (brain, spleen or liver) were isolated at the times indicated. Histones were isolated from tissues essentially as described by Yoshida et al., (1990) J. Biol. Chem. 265:17174-17179. Equal amounts of histones (1 μg) were electrophoresed on 15% SDS-polyacrylamide gels and transferred to Hybond-P filters (Amersham). Filters were blocked with 3% milk and probed with a rabbit purified polyclonal anti-acetylated histone H4 antibody (αAc-H4) and anti-acetylated histone H3 antibody (αAc-H3) (Upstate Biotechnology, Inc.). Levels of acetylated histone were visualized using a horseradish peroxidase-conjugated goat anti-rabbit antibody (1:5000) and the SuperSignal chemiluminescent substrate (Pierce). As a loading control for the histone proteins, parallel gels were run and stained with Coomassie Blue (CB).
Background: Immunoblotting shows a protein as a band on a membrane.

The subject of data set [2] is histone deacetylase enzyme. Particulars: cited from earlier work.
Data set [3] deals with transformed cells in culture. Particulars: cited from earlier work.
A further data set has as its system tumor growth. Particulars: cited from earlier work.

The structures appear in SMILES notation.

With `O=C(CCCCCCC(=O)Nc1ccccc1)NO` [SAHA, suberoylanilide hydroxamic acid], in data set [1], the “crossing of the blood brain barrier” value is on record as “can cross the blood brain barrier”. In addition, the “binding to histone deacetylase enzyme” value in data set [2] is listed as “bind directly in the catalytic pocket of the histone deacetylase enzyme”. Further, the “cell cycle arrest, differentiation and/or apoptosis” value in data set [3] is listed as “induces cell cycle arrest, differentiation and/or apoptosis of transformed cells in culture”. The “toxicity to the animal” value in the data set on tumor growth (animals in tumor growth studies) is listed as “no toxicity to the animal”. In addition, the “accumulation of acetylated histones in the tumor” value in the data set with tumor growth (tumor) is recorded as “associated with an accumulation of acetylated histones in the tumor”.
Regarding `O=C(CCCCCCC(=O)Nc1cccnc1)NO` [pyroxamide], the “crossing of the blood brain barrier” value in data set [1] is “can cross the blood brain barrier”. Also, the “inhibition of HDAC activity / accumulation of acetylated histones in the brain” value in data set [1] (brain histones, anti-AcH3/AcH4 Western blot) is given as “significantly inhibit HDAC activity causing the accumulation of acetylated histones in the brain”.
